Measurements as given in patent US20220235014A1, “PROCESS FOR THE PREPARATION OF HIGHLY PURE ERLOTINIB HYDROCHLORIDE” (SHIVALIK RASAYAN LIMITED, priority 2021, published 2022).
Like-named read-outs stand apart in the source and are kept apart here.

[1] = 1M storage, table does not say which condition (30° C./65% or 40° C./75% RH)
[2] = 2M storage, table does not say which condition (30° C./65% or 40° C./75% RH)
[3] = 3M storage, table does not say which condition (30° C./65% or 40° C./75% RH)
[4] = 6M storage, table does not say which condition (30° C./65% or 40° C./75% RH)
[5] = 9M storage, table does not say which condition (30° C./65% or 40° C./75% RH)

For C#Cc1cccc(Nc2ncnc3cc(OCCOC)c(OCCOC)cc23)c1.Cl [Form SEA, N-(3-ethynylphenyl)-6,7-bis (2-methoxy ethoxy)-4-quinazolinamine hydrochloride], the “Assay (by HPLC; on anhydrous basis)” value [1] was 99.19% w/w, the “Moisture Content (by KF method)” value [1] was 0.24% w/w and the “Assay (by HPLC; on anhydrous basis)” value [2] was 101.56% w/w. The “Moisture Content (by KF method)” value [2] was 0.26% w/w, the “Assay (by HPLC; on anhydrous basis)” value [3] was 101.41% w/w and the “Moisture Content (by KF method)” value [3] was 0.21% w/w. The “Assay (by HPLC; on anhydrous basis)” value [4] was 99.99% w/w, the “Moisture Content (by KF method)” value [4] was 0.17% w/w and the “Assay (by HPLC; on anhydrous basis)” value [5] was 100.40% w/w. For the same compound, the “Moisture Content (by KF method)” value [5] was 0.42% w/w, the “HPLC purity after 9 months stability” value (9 months) was “exceeding 99.8 % w/w by HPLC” and the “Assay (by HPLC; on anhydrous basis)” value (Initial, limit >99.8%) was 100.84% w/w. The “Moisture Content (by KF method)” value (Initial, limit not more than 0.5% w/w) was 0.17% w/w, the “time over which the crystalline form was stable under storage” value (storage at 30° C./65±5%) was “up to 12 months” and the “time over which the crystalline form was stable under storage” value (storage at 40° C./75±5%) was “up to 12 months”.
